Active and inactive are the calls of the source. The calls are words filed in the database; no cut-off is given here.
Key:
[1] = test system: Duck hepatitis B virus; assay: Antiviral activity against Duck hepatitis B virus (DHBV) infected duck assessed as reduction in viral DNA level at 2 to 50 mg/kg, po for 30 days measured on day 30 by RT-PCR analysis; type: functional, organism-based
[2] = test system: Duck hepatitis B virus; assay: Antiviral activity against Duck hepatitis B virus (DHBV) infected duck assessed as liver weight at 2 mg/kg, po for 30 days (reference value: 1.25 g); type: functional
[3] = test system: Duck hepatitis B virus; assay: Antiviral activity against Duck hepatitis B virus (DHBV) infected duck assessed as liver weight at 10 mg/kg, po for 30 days (reference value: 1.25 g); type: functional
[4] = test system: Duck hepatitis B virus; assay: Antiviral activity against Duck hepatitis B virus (DHBV) infected duck assessed as reduction in viral DNA level at 2 to 50 mg/kg, po for 30 days measured on day 15 post initial treatment by RT-PCR analysis; type: functional, organism-based
[5] = test system: Duck hepatitis B virus; assay: Antiviral activity against Duck hepatitis B virus (DHBV) infected duck assessed as reduced inflammation in liver at 2 to 50 mg/kg, po for 30 days; type: functional, organism-based
[6] = test system: HepG2; assay: Cytotoxicity against Homo sapiens (human) HepG2 assessed as mitochondrial DNA level at 0.1 to 10 umol for 8 days by dot blot assay; type: cell-based; settings: hepg2, 192 h
[7] = test system: Duck hepatitis B virus; assay: Antiviral activity against Duck hepatitis B virus (DHBV) infected duck assessed as liver weight at 50 mg/kg, po for 30 days (reference value: 1.25 g); type: functional
[8] = test system: Duck hepatitis B virus; assay: Antiviral activity against Duck hepatitis B virus (DHBV) infected duck assessed as reduction in viral DNA level at 2 to 50 mg/kg, po for 30 days measured on day 15 post termination of treatment by RT-PCR analysis; type: functional, organism-based
[9] = test system: HepG2; assay: Cytotoxicity against Homo sapiens (human) HepG2 cells at <1000 uM after 72 hr by MTT assay; type: cell-based; settings: hepg2, 72 h
[10] = test system: Duck hepatitis B virus; assay: Antiviral activity against Duck hepatitis B virus (DHBV) infected duck assessed as reduction in viral DNA level at 10 mg/kg, po for 30 days measured on day 30 by RT-PCR analysis; type: functional, organism-based; set-up: dose 10 mg/kg
[11] = test system: Duck hepatitis B virus; assay: Antiviral activity against Duck hepatitis B virus (DHBV) infected duck assessed as viral DNA level at 10 mg/kg, po for 30 days measured on day 15 post initial treatment by RT-PCR analysis; type: functional, organism-based; set-up: dose 10 mg/kg
[12] = test system: Duck hepatitis B virus; assay: Antiviral activity against Duck hepatitis B virus (DHBV) infected duck assessed as reduction in viral DNA level at 10 mg/kg, po for 30 days measured on day 15 post termination of treatment by RT-PCR analysis; type: functional, organism-based; set-up: dose 10 mg/kg
[13] = test system: Duck hepatitis B virus; assay: Antiviral activity against Duck hepatitis B virus (DHBV) infected duck assessed as reduced inflammation in liver at 10 mg/kg, po for 30 days; type: functional, organism-based; set-up: dose 10 mg/kg
[14] = test system: Duck hepatitis B virus; assay: Antiviral activity against Duck hepatitis B virus (DHBV) infected po dosed duck assessed as reduction in viral DNA level administered for 30 days measured on day 15 post initial treatment by RT-PCR analysis; type: functional, organism-based
[15] = test system: Duck hepatitis B virus; assay: Antiviral activity against Duck hepatitis B virus (DHBV) infected po dosed duck assessed as reduction in viral DNA level administered for 30 days measured on day 15 post termination of treatment by RT-PCR analysis; type: functional, organism-based
[16] = test system: Duck hepatitis B virus; assay: Antiviral activity against Duck hepatitis B virus (DHBV) infected po dosed duck assessed as reduction in viral DNA level administered for 30 days measured on day 30 by RT-PCR analysis; type: functional, organism-based
[17] = test system: Duck hepatitis B virus; assay: Antiviral activity against Duck hepatitis B virus (DHBV) infected duck assessed as viral DNA level at 2 to 50 mg/kg, po for 30 days measured on day 15 post initial treatment by RT-PCR analysis; type: functional, organism-based
[18] = test system: HepG2; assay: Cytotoxicity against Homo sapiens (human) HepG2 assessed as mitochondrial DNA level for 8 days by dot blot assay; type: cell-based; settings: hepg2, 192 h

SMILES | inhibition [1] | Activity [2] [g] | Activity [3] [g] | inhibition [4] | inhibition [5] | Activity [6] | Activity [7] [g] | inhibition [8] | Activity [9] | inhibition [10] | Activity [11] | inhibition [12] | inhibition [13] | inhibition [14] | inhibition [15] | inhibition [16] | Activity [17] | Activity [18]
COc1ccc(Sc2nc(N)nc3c2ncn3CCOCP(=O)(OCC(F)(F)F)OCC(F)(F)F)cc1F | Active | 0.8 | 0.8 | Active | Active | Non-toxic | 0.85 | Active | Non-toxic | – | – | – | – | – | – | – | – | –
CC(C)(C)C(=O)OCOP(=O)(COCCn1cnc2c(N)ncnc21)OCOC(=O)C(C)(C)C [ADEFOVIR DIPIVOXIL] | – | – | 0.8 | – | – | – | – | – | Non-toxic | Active | inactive | Active | Active | – | – | – | – | –
CSc1ccc(Sc2nc(N)nc3c2ncn3CCOCP(=O)(OCC(F)(F)F)OCC(F)(F)F)cc1 | – | 0.8 | 0.75 | – | Active | Non-toxic | 0.55 | – | Non-toxic | – | – | – | – | Dose-dependent effect | Dose-dependent effect | Dose-dependent effect | – | –
CC(Cn1cnc2c(Sc3ccc4c(c3)CCO4)nc(N)nc21)OCP(=O)(OCC(F)(F)F)OCC(F)(F)F (stereo unspecified) | Active | 0.9 | 0.75 | Active | Active | Non-toxic | 0.95 | Active | Non-toxic | – | – | – | – | – | – | – | inactive | –
Nc1ccn([C@H]2CC[C@@H](CO)O2)c(=O)n1 [ZALCITABINE] | – | – | – | – | – | Toxic | – | – | – | – | – | – | – | – | – | – | – | Dose-dependent effect
